According to patent US8802895B2, “Amide derivatives of benzene-sulfonanilide, pharmaceutical composition thereof and method for cancer treatment using the same” (Cleveland State University, priority 2010, dated 2014):
Like-named read-outs stand apart in the source and are kept apart here.

Legend:
cells = assay: Primary mechanism study: cell viability with compound #10 and 2-APB (FIG. 10); format: cell-based; settings: 2-APB added two hours before compound #10; cell viability after 48 hours
SKBR-3 cells = assay: MTT cell viability assay with SKBR-3 cells; format: cell-based; settings: Homo sapiens, SK-BR-3
Experimental: SKBR-3 cells were obtained from ATCC (Rockville, Md.). […] Bovine serum was heat inactivated for 30 min in a 56° C. water bath before use. Cell cultures were grown at 37° C., in a humidified atmosphere of 5% CO2 in a Hereaus CO2 incubator. For all experiments, cells were seeded in 96 well plates with 5000 cells/well density.
Cells were grown in custom medium in 96-well, flat-bottomed plates for 24 h, and were exposed to various concentrations of nimesulide derivatives dissolved in DMSO (final concentration≦0.1%) in media for different time intervals. Controls received DMSO vehicle at a concentration equal to that in drug-treated cells. […] Supernatants were removed from the wells, and the reduced 3-(4,5-dimethylthiazol-2-yl)-2,5-diphenyl-2H-tetrazolium bromide dye was solubilized in 200 μl/well DMSO. Absorbance at 570 nm was determined on a plate reader.

[1] = SKBR-3 cells, cell viability, read-out: IC50

IC50 (SKBR-3 cells; [1]) [nM]	Compound	further results
2.6 ± 1.3	COc1ccc(OC)c(COc2cc(NC(=O)c3ccc(OC)c(OC)c3)ccc2N(C)S(C)(=O)=O)c1 [Compound #44, N-[3-(2,5-dimethoxyl-benzyloxy)-4-(methanesulfonyl-methyl-amino)-phenyl]-3,4-dimethoxy-benzamide]	
16.6 ± 7.7	COc1ccc(OC)c(COc2cc(NC(=O)c3ccc4ccccc4c3)ccc2N(C)S(C)(=O)=O)c1 [Compound #45, N-[3-(2,5-dimethoxyl-benzyloxy)-4-(methanesulfonyl-methyl-amino)-phenyl]-2-naphthalenecarboxamide]	

Second part, the molecule before the results:

Compound	IC50 (SKBR-3 cells; [1]) [nM]	further results
NCCOB(c1ccccc1)c1ccccc1 [Compound 2-APB, 2-aminoethoxydiphenyl borate, reference compound]		rescue of cell death from compound #10 treatment (cell viability) (cells): can partially rescue the cell death from compound #10 treatment
COc1ccc(OC)c(COc2cc(NC(=O)c3ccc(I)cc3)ccc2N(C)S(C)(=O)=O)c1 [Compound #40, N-[3-(2,5-dimethoxyl-benzyloxy)-4-(methanesulfonyl-methyl-amino)-phenyl]-4-iodo-benzamide]	1.8 ± 0.7	
COc1ccc(C(=O)Nc2ccc(N(C)S(C)(=O)=O)c(OCc3cc(OC)ccc3OC)c2)cc1 [Compound #41, N-[3-(2,5-dimethoxy-benzyloxy)-4-(methanesulfonyl-methyl-amino)-phenyl]-4-methoxy-benzamide]	0.87 ± 0.33	
COc1ccc(OC)c(COc2cc(NC(=O)c3ccc(Br)cc3)ccc2N(C)S(C)(=O)=O)c1 [Compound #42, N-[3-(2,5-dimethoxy-benzyloxy)-4-(methanesulfonyl-methyl-amino)-phenyl]-4-bromobenzamide]		IC50 (SKBR-3 cells): 3.5 ± 1.9 nM
COc1ccc(OC)c(COc2cc(NC(=O)c3ccc4c(c3)OCO4)ccc2N(C)S(C)(=O)=O)c1 [Compound #43, N-[3-(2,5-dimethoxyl-benzyloxy)-4-(methanesulfonyl-methyl-amino)-phenyl]-1,3-benzodioxole-5-carboxamide]		IC50 (SKBR-3 cells): 7.5 ± 2.8 nM
